According to PMC4494349, “Epitope Prediction Assays Combined with Validation Assays Strongly Narrows down Putative Cytotoxic T Lymphocyte Epitopes” (Vaccines, 2015):

Experiments:
H-2D^b = target: T1, H-2D^b (Mus musculus, UniProt P01899); assay: MHC class I stabilization assay on RMA-S cells, H-2D^b surface expression; assay type: cell-based; conditions: for H-2D^b binder class (weak, intermediate, strong) by stabilization of MHC class I on RMA-S cells: 10 μM (Figure 1a), in words; for MHC I Stabilization Assay, fluorescence index class, H-2D^b: RMA-S cells 26 °C 4 h then 37 °C 1 h, flow cytometry
T1 sequence (P01899 25-362): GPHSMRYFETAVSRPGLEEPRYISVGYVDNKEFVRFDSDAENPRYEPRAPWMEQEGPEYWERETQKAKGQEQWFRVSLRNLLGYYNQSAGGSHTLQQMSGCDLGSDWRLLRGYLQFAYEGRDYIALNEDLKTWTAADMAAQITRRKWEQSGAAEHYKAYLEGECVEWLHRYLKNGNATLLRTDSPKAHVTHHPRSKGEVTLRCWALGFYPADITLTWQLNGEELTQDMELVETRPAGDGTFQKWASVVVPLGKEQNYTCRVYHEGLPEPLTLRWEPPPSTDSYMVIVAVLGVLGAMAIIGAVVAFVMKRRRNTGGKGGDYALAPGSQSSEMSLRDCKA
T1 sequence (P01887 21-119 partner): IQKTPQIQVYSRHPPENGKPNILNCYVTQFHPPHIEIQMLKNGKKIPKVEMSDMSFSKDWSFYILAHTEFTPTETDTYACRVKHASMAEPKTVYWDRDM

H-2K^b = target: T2, H-2K^b (Mus musculus, UniProt P01901); assay: MHC class I stabilization assay on RMA-S cells, H-2K^b surface expression; conditions: for MHC I Stabilization Assay, fluorescence index class, H-2K^b: RMA-S cells 26 °C 4 h then 37 °C 1 h, flow cytometry
T2 sequence (P01901 22-369): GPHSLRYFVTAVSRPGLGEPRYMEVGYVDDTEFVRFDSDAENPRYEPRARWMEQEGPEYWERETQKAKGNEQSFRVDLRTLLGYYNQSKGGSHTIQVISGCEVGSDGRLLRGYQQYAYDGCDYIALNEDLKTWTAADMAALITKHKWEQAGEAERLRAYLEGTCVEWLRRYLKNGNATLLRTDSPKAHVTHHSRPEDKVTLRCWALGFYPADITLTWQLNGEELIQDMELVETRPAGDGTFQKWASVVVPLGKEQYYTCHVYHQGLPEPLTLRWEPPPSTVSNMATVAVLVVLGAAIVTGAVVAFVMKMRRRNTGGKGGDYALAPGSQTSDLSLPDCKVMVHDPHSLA
T2 sequence (P01887 21-119 partner): T1 sequence (P01887 21-119 partner)
Protocol: RMA-S cells were maintained in IMDM (Life Technologies, Bleiswijk, The Netherlands) supplemented with 10% FBS and 100 U/mL penicillin and 100 μg/mL streptomycin (Life Technologies). RMA-S cells were cultured at 26 °C for 48 h to induce expression of MHC class I molecules. Cells were then incubated with various concentrations of synthetic peptides at 26 °C for 4 h, followed by a 1-h culture at 37 °C. […] The surface expression of MHC class I molecules were analyzed by FACSCalibur cytometer (BD Biosciences, Breda, The Netherlands) and data analyzed with FlowJo software (Treestar, Ashland, OR, USA). Fluorescence index was calculated by dividing the median fluorescence intensity (MFI) value of cells incubated with SLPs by the MFI value of cells incubated with equivalent concentration of DMSO.

[1] = synthetic long peptides, peptide concentration 10 μM, FI = MFI peptide / MFI DMSO

Sequence: RLGAVQNEVTLTHPITKY [NS3_601-618]
- H-2D^b binder class (weak, intermediate, strong) by stabilization of MHC class I on RMA-S cells (H-2D^b; synthetic long peptides): weak (0.2–0.5: weak binders (+))
- MHC I Stabilization Assay, fluorescence index class, H-2D^b (H-2D^b; [1]): + (Fluorescence index of H-2D^b: 0.2–0.5 +)

Sequence: ATPPGSVTVSHPNIEEVA [NS3_323-340]
- H-2D^b binder class (weak, intermediate, strong) by stabilization of MHC class I on RMA-S cells (H-2D^b; synthetic long peptides): weak (0.2–0.5: weak binders (+))
- MHC I Stabilization Assay, fluorescence index class, H-2D^b (H-2D^b; [1]): + (Fluorescence index of H-2D^b: 0.2–0.5 +)

Sequence: LSQTKQSGENFPYLVAY [NS3_547-563]
- H-2D^b binder class (weak, intermediate, strong) by stabilization of MHC class I on RMA-S cells (H-2D^b; synthetic long peptides): intermediate (0.5–1.5: intermediate binders (++))
- MHC I Stabilization Assay, fluorescence index class, H-2D^b (H-2D^b; [1]): ++ (0.5–1.5 ++)

Sequence: AETTVRLRAYMNTPGLPV [NS3_507-524]
- H-2D^b binder class (weak, intermediate, strong) by stabilization of MHC class I on RMA-S cells (H-2D^b; synthetic long peptides): strong (>1.5: strong binders (+++))
- MHC I Stabilization Assay, fluorescence index class, H-2D^b (H-2D^b; [1]): +++ (>1.5 +++)

Sequence: IQMYTNVDQDLVGWPA [NS3_72-87]
- H-2D^b binder class (weak, intermediate, strong) by stabilization of MHC class I on RMA-S cells (H-2D^b; synthetic long peptides): weak (0.2–0.5: weak binders (+))
- MHC I Stabilization Assay, fluorescence index class, H-2D^b (H-2D^b; [1]): + (Fluorescence index of H-2D^b: 0.2–0.5 +)

Sequence: ALGINAVAYYRGLDVSVI [NS3_383-400]
- H-2D^b binder class (weak, intermediate, strong) by stabilization of MHC class I on RMA-S cells (H-2D^b; synthetic long peptides): intermediate (0.5–1.5: intermediate binders (++))
- MHC I Stabilization Assay, fluorescence index class, H-2D^b (H-2D^b; [1]): ++ (0.5–1.5 ++)

Sequence: SIINFEKL [OVA257-264]
- Fluorescence index (FI), stabilization of H-2K^b (H-2K^b; short peptides at 100 μM, strong binders): > 8
- plateau of stabilization of H-2K^b molecules (H-2K^b; short peptides, up to high peptide concentration (100 μM)): not detectable
- MHC I Stabilization Assay, fluorescence index class, H-2K^b (H-2K^b; short synthetic peptides, serially diluted (Figure 2b)): +++ (>8 +++)
- MHC I Stabilization Assay, fluorescence index class, H-2D^b (H-2D^b; short synthetic peptides, serially diluted (Figure 2a)): ++ (0.5–1.5 ++)

Sequence: VPAAYAAQGYKVLVL [NS3_214-228]
- H-2K^b binder class (weak, intermediate, strong) by stabilization of MHC class I on RMA-S cells (H-2K^b; synthetic long peptides, 10 μM (Figure 1b), in words): weak (0.2–2: weak binders (+))
- MHC I Stabilization Assay, fluorescence index class, H-2K^b (H-2K^b; [1]): + (Fluorescence index of H-2K^b: 0.2–2 +)
- H-2D^b binder class (weak, intermediate, strong) by stabilization of MHC class I on RMA-S cells (H-2D^b; synthetic long peptides): intermediate (0.5–1.5: intermediate binders (++))
- MHC I Stabilization Assay, fluorescence index class, H-2D^b (H-2D^b; [1]): ++ (0.5–1.5 ++)
